“And” between values parts separate entries of the source, which are not always exact repeats. Equal values may be shown once. Read-outs that look alike come from different tables or passages of the source.
Columns and labels:
[1] = tested on: Erectile Dysfunction Induced by Hypercholesterolemia in a Rat Model; test: Erectile function in rats fed a high cholesterol diet (Example 5); type: in vivo; conditions: 6 months cholesterol diet, 4 months after intracavernous treatment
Protocol: Twenty-one Sprague-Dawley rats were used. All rats were fed a 2.5% cholesterol diet with added lard starting at 2 weeks of age for 6 months. The rats were divided into three groups. All groups after two months of a high cholesterol diet underwent serum evaluation of cholesterol and intracavernous injection of saline or treatment. Group 1, the control group, received intracavernous injection of saline, group 2, the VEGF group, received intracavernous injection of 4 ug of VEGF, and group 3, the AAV-BDNF group received 15 ug of BDNF. After six months of cholesterol diet and 4 months of treatment, all rats were subjected to cavernous nerve electrostimulation, cavernosometry with intracavernous papaverine injection, and infusion cavernosometry with heparinized saline to measure erectile function.

[2] = tested on: nNOS-positive nerve fibers in dorsal and intracavernous nerves; conditions: 2 & 4 μg VEGF, week 6; not statistically significant
VSMC (aorta SMC) = conditions: VSMC from 16-weeks-old rats
Protocol: Primary aorta SMC cultures were prepared similarly with aortas isolated from 16-week-old male rats.
Cell migration assays were performed in 6.5-mm Transwell chambers of Corning Costar Corporation (Cambridge, Mass.). The Transwell inserts (upper chambers) were bathed in a solution containing 13.4 μg/ml fibronectin in PBS at 37° C. for 1 hr and allowed to air-dry. The dried upper chambers were then placed in the lower chambers, each of which contained 700 μl of serum-free DMEM supplemented with 0.1% BSA and 0 to 500 ng/ml of VEGF. SMC that had been grown to 70% confluence were further conditioned in serum-free DMEM (containing 0.1% BSA) for 2 hr and then trypsinized. The trypsinized cells were washed in PBS and resuspended at a concentration of 80,000 cells per ml in serum-free DMEM (containing 0.1% BSA). One hundred μl of the cell suspension was then added to each upper chamber. After 4 hr of incubation at 37° C., all liquid in the upper and lower chambers was removed by aspiration. The membranes in the upper chambers were subsequently fixed in 1% buffered formalin for 5 min and stained with 2% crystal violet. Non-migratory cells on the upper side of the membranes were scraped off with cotton swabs. Well locations were marked on the membranes and total cells per well were counted visually in a masked fashion. Well locations were then correlated with the concentrations of VEGF in the wells. […]

[3] = tested on: major pelvic ganglia (MPG); test: Nerve fiber outgrowth from cultured major pelvic ganglia; type: cell-based, rat; design: Average fiber length / FIBER LENGTH (average lengths of the growing fibers): unit not given here
Protocol: Each freshly isolated MPG was cut into 8 pieces of approximately equal size and each piece was then attached to a Matrigel-coated coverslip. The MPG pieces were cultured in serum-free medium supplemented with phosphate-buffered saline (PBS, control), 50 ng/ml of vascular endothelial growth factor (VEGF), 20 ng/ml of brain-derived neurotrophic factor (BDNF), or VEGF+BDNF. After 2 days of incubation, the ganglial tissues with their outgrowing nerve fibers were stained for the expression of NADPH diaphorase and acetylcholinesterase (AchE).
We have been using several experimental systems to test the efficacy of combination growth factor therapies for impotence. One system employs cultured rat major pelvic ganglia (MPG) that are known to innervate all urogenital organs, including the penis. We discovered that the cultured MPG are able to sprout new nerve fibers (nerve regeneration) from the axonal ends during the first 3 days of culture, especially when treated with VEGF, BDNF, NT-3, or NT-4.

[4] = tested on: Rat Model of Traumatic Arteriogenic Erectile Dysfunction
Description: Bipolar platinum-wire electrodes were used to stimulate the cavernous nerve. The exposed end of the electrodes were hooked around the nerve to be stimulated, with the positive electrode being positioned proximally and the negative electrode two to three mm distally. Stimulus parameters were 1.5 volts, frequency of 20 pulses per second, pulse width of 0.2 msec, and the duration of 50 seconds. Intracavernous pressure was monitored and recorded by inserting a number 23 scalp vein needle to one of the crura and connected to a pressure monitor.

[5] = tested on: Rodent Model of Neurogenic Erectile Dysfunction; conditions: VEGF 4 ug intracavernous, three months after bilateral cavernous nerve freezing
[6] = tested on: established venogenic erectile dysfunction in castrated rats; conditions: castrated rats with venous leak, 1 month following VEGF treatment
Protocol: These animals (n=8) were treated with intracavernous VEGF protein and then after one month cavernosometry repeated to measure the effect of VEGF treatment.
A 1.5 cm oblique incision was made in the lower abdominal skin extending from the midline just above the penile hilum to below the level of the glans about 1 cm lateral to the midline. The skin was sharply dissected from the anterior surface of the penis and then the penis was retracted anteriorly using a towel clamp placed around it atraumatically with the foreskin left intact. Using blunt dissection the penile base and crura were exposed. The ischiocavernosus muscles were sharply dissected off the anterior surface of the crus until the white of the tunica albuginea of the corpora cavernosa was identified. The crus was then gently cannulated using a 23 gage butterfly needle, and saline flush with a visual erectile response was used to confirm that the needle tip was truly intracavernosal. The intracavernosal injections were then administered with either VEGF protein (Calbiochem, La Jolla, Calif. #676472) at the dosage 4 ug/injection (in 0.1 cc PBS with 0.1% BSA), AAV-VEGF (10^10 viral particles in 0.1 cc NS), AAV-LacZ (10^10 viral particles in 0.1 cc NS), or 0.1 ml NS alone. The AAV-VEGF and AAV-LacZ constructs were a generous gift from Dr. Yuet W. Kan (Howard Hughes Medical Research Institute, San Francisco, Calif.).^19,20 Following injection, the needle was left in place for 5 minutes and then removed to allow the medication to diffuse throughout the cavernosal space. Immediately thereafter, pinpoint electrocautery was applied to the needle hole for hemostasis and then the wound was closed and the animal recovered as above.
To perform pharmacologic cavemosometry, both the right and left crura were separately cannulated using 23 gauge butterfly needles as described above. […] The baseline ICP was recorded (flaccid ICP) and then a dose of papavarine (1 mg in 0.1 cc NS) was administered through the infusion cannula. […] After 5 minutes more, the ICP was again recorded (ICP after papavarine) and the infusion started. […] By slowly adjusting the inflow rate, an intracorporal pressure of 100 cm H2O (erectile pressure) was reached and the infusion rate required to maintain this pressure recorded (the maintenance rate). After this pressure was steady for 20 seconds, the infusion was terminated and the change in ICP over the subsequent 60 seconds was recorded (the drop rate).

[7] = tested on: cavernous smooth muscle cells (CSMC); conditions: CSMC from rats of all ages, three days, serum-free medium
Protocol: Each primary culture of CSMC was prepared from the corpora cavernosa of 2-3 rats by the following procedure. The penis was cleared of the urethra, blood vessels, fat and connective tissue. The remaining smooth muscle tissue was washed 3 times in sterile PBS (phosphate-buffered saline) and cut into 2-3 mm^3 segments. The segments were placed evenly onto a 100-mm cell culture dish (Falcon-Becton Dickinson Labware, Franklin Lakes, N.J.) inside a cell culture hood. Approximately 10 min later, 10 ml of Dulbecco's Modified Eagle Medium (DMEM) containing penicillin (100 units/ml), streptomycin (100 μg/ml), and 10% FBS was carefully pipetted into the dish. The dish was then kept undisturbed in a humidified 37° C. incubator with 5% CO2. Five days later, tissue segments that have detached from the dish were removed, and the medium was replaced with fresh medium. Another 5 days later, all tissue segments were removed and the medium was again replaced with fresh medium. When small islands of cells were noticeable, they were trypsinized and transferred to a fresh culture dish. […]
Cell proliferation assays were performed with the CellTiter-96 kit from Promega Inc. (Madison, Wis.). […] After 4 hr of further incubation at 37° C. in the humidified, 5% CO2 incubator, color development, which reflects cell numbers, was recorded with a plate reader (Molecular Devices Corp., Sunnyvale, Calif.) at 490-nm absorbance. […]

[8] = 50 ng/ml VEGF, 20 ng/ml BDNF, 2 days of incubation

## VEGF
[1]
  effect on erectile dysfunction caused by high cholesterol diet: seem to reverse the erectile dysfunction
  sustained intracavernous pressures during the pharmacologic erection phase of cavernosometry, vs high cholesterol controls: significantly higher
[2]
  recovery of nNOS-positive nerve fibers in dorsal and intracavernous nerves: moderate recovery
VSMC (aorta SMC)
  effect on migration of VSMC: stimulated migration
[3]; [8]
  AchE staining intensity: 8,470±199 IDV
  NADPH staining intensity: 10,126±187 IDV
[3]; 48 hours after culturing
  FIBER LENGTH (average lengths of the growing fibers): 89
[4]; 2 μg VEGF intracavernous, Week 1
  Peak sustained intracavernous pressure during electrostimulation of the cavernous nerves: 23.50 ± 2.38 cm H20
[4]; 2 μg VEGF intracavernous, Week 2
  Peak sustained intracavernous pressure during electrostimulation of the cavernous nerves: 43.00 ± 8.37 cm H20
[4]; 2 μg VEGF intracavernous, Week 6
  Peak sustained intracavernous pressure during electrostimulation of the cavernous nerves: 69.00 ± 8.83 cm H20
[4]; 4 μg VEGF intracavernous, Week 1
  Peak sustained intracavernous pressure during electrostimulation of the cavernous nerves: 71.17 ± 16.89 cm H20
[4]; 4 μg VEGF intracavernous, Week 2
  Peak sustained intracavernous pressure during electrostimulation of the cavernous nerves: 86.25 ± 8.18 cm H20
[4]; 4 μg VEGF intracavernous, Week 6
  Peak sustained intracavernous pressure during electrostimulation of the cavernous nerves: 96.67 ± 13.50 cm H20
[4]; 2-μg and 4-μg groups, week 6
  improvement in intracavernous pressure compared with the PBS-treated group: statistically significant improvement
[4]; 4-μg group, weeks 1 and 2
  recovery of erectile function: moderate recovery
[5]
  maximal intracavernous pressure: 72.78±10.87 cm H2O
[6]
  Drop Rate in 1 min.: 17.4 cm H2O and 17.4(+/−24) cm H2O
  Flaccid ICP: 25.3 cm H2O
  ICP After Papavarine: 84 cm H2O and 83.9 cm H2O
  Maintenance Rate: 0.08 ml/min and 0.08(+/−0.15) ml/min
[7]
  optimal dosage of VEGF for CSMC growth rate: 12.5 ng/mL

— patent publication US7265091B2, “Methods and compositions for treating male erectile dysfunction” (The Regents of the University of California, priority 2000, dated 2007)
